Results on 23 compounds are retold here after ChEMBL document CHEMBL4680171, “Oxadiazolylthiazoles as novel and selective antifungal agents” (Eur J Med Chem, 2020).

≈ marks a conversion by molar mass, not a printed value.

What all share (assay type): functional
In one test the test system is Staphylococcus aureus. Kind of test: Antibacterial activity against methicillin resistant Staphylococcus aureus subsp. aureus USA300 assessed as reduction in bacterial growth by CLSI based broth microdilution method. (Dilution methods test growth across graded concentrations, often in twofold steps.)
For test [1], the system named is Escherichia coli. Kind of test: Antibacterial activity against Escherichia coli JW55031 harboring tolC mutation assessed as reduction in bacterial growth by CLSI based broth microdilution method.
Test [2] has as its system Escherichia coli. Briefly: Antibacterial activity against Escherichia coli BW25113 assessed as reduction in bacterial growth by CLSI based broth microdilution method.
The test system of a further test is Clostridioides difficile. Briefly: Antibacterial activity against Clostridium difficile BAA1870 assessed as reduction in bacterial growth by CLSI based broth microdilution method.
The test system of the next test is Candida albicans. Kind of test: Antifungal activity against Candida albicans SS5314 assessed as reduction in fungal growth by CLSI based broth microdilution method.
Test [3] has as its system Aspergillus fumigatus. Briefly: Antifungal activity against Aspergillus fumigatus NR 35303 assessed as reduction in fungal growth incubated for 24 hrs by CLSI based broth microdilution method.
In test [4] the test system is Aspergillus fumigatus. Briefly: Antifungal activity against Aspergillus fumigatus NR 35304 assessed as reduction in fungal growth incubated for 24 hrs by CLSI based broth microdilution method.

The MIC is the lowest concentration that inhibits growth of the organism. With `Cc1nc(-c2ccc(C(C)(C)C)cc2)sc1-c1nnc(NCCO)o1`, the MIC in the test with Staphylococcus aureus is over 64 µg/mL; with Escherichia coli [1], over 64 µg/mL; in the test on Escherichia coli [2], over 64 µg/mL; with Clostridioides difficile, 32 µg/mL (≈ 89.3 µM); with Candida albicans it was over 64 µg/mL.

Take `Cc1nc(-c2ccc(C(C)(C)C)cc2)sc1-c1nnc(N2CC[C@@H](N(C)C)C2)o1`: the MIC in the test on Staphylococcus aureus, in the test on Escherichia coli [1], in the test on Escherichia coli [2], with Clostridioides difficile and in the test on Candida albicans was over 64 µg/mL throughout.

Turning to `Cc1nc(-c2ccc(C(C)(C)C)cc2)sc1-c1nnc(NCCN(C)C)o1`, the minimal inhibitory concentration (MIC) is 64 µg/mL (≈ 166 µM) with Staphylococcus aureus; 32 µg/mL (≈ 83 µM) in the test with Escherichia coli [1]; over 64 µg/mL in the test on Escherichia coli [2]; 16 µg/mL (≈ 41.5 µM) in the test with Clostridioides difficile; 32 µg/mL (≈ 83 µM) in the test with Candida albicans.

On to `Cc1nc(-c2ccc(C(C)(C)C)cc2)sc1-c1nnc(N2CC[C@H](N(C)C)C2)o1`, for which the MIC is over 64 µg/mL in the test with Staphylococcus aureus; over 64 µg/mL in the test on Escherichia coli [1]; over 64 µg/mL in the test on Escherichia coli [2]; 32 µg/mL (≈ 77.8 µM) in the test with Clostridioides difficile; over 64 µg/mL in the test on Candida albicans.

Consider `Cc1nc(-c2ccc(C(C)(C)C)cc2)sc1-c1nnc(NCC(=N)N)o1`, for which the MIC in the test on Staphylococcus aureus is over 64 µg/mL; with Escherichia coli [1] it was over 64 µg/mL; in the test on Escherichia coli [2] it was over 64 µg/mL; in the test on Clostridioides difficile it was 64 µg/mL (≈ 173 µM); with Candida albicans it was over 64 µg/mL.

As to `Cc1nc(-c2ccc(C(C)(C)C)cc2)sc1-c1nnc(NC(CO)CO)o1`, the MIC in the test on Staphylococcus aureus, with Escherichia coli [1], in the test with Escherichia coli [2], in the test with Clostridioides difficile and with Candida albicans was over 64 µg/mL throughout.

As for `Cc1nc(-c2ccc(C(C)(C)C)cc2)sc1-c1nnc(NC2CCNC2)o1` (stereo not drawn), the MIC is 32 µg/mL (≈ 83.4 µM) in the test with Staphylococcus aureus; 32 µg/mL (≈ 83.4 µM) in the test on Escherichia coli [1]; over 64 µg/mL in the test on Escherichia coli [2]; 16 µg/mL (≈ 41.7 µM) in the test with Clostridioides difficile; over 64 µg/mL in the test with Candida albicans.

Consider `Cc1nc(-c2ccc(C(C)(C)C)cc2)sc1-c1nnc(NC[C@H](O)CO)o1`, for which the MIC with Staphylococcus aureus is over 64 µg/mL; in the test with Escherichia coli [1], 32 µg/mL (≈ 82.4 µM); in the test with Escherichia coli [2], over 64 µg/mL; with Clostridioides difficile, 16 µg/mL (≈ 41.2 µM); in the test with Candida albicans it was over 64 µg/mL.

Turning to `Cc1nc(-c2ccc(C(C)(C)C)cc2)sc1-c1nnc(N2CCC[C@H]2CO)o1`, the MIC is over 64 µg/mL with Staphylococcus aureus; over 64 µg/mL in the test on Escherichia coli [1]; over 64 µg/mL in the test on Escherichia coli [2]; 16 µg/mL (≈ 40.1 µM) in the test with Clostridioides difficile; over 64 µg/mL in the test with Candida albicans.

For the compound `Cc1nc(-c2ccc(C(C)(C)C)cc2)sc1-c1nnc(NCCN)o1`, the MIC is 8 µg/mL (≈ 22.4 µM) in the test with Staphylococcus aureus; over 64 µg/mL with Escherichia coli [1]; over 64 µg/mL in the test with Escherichia coli [2]; over 64 µg/mL with Clostridioides difficile; 32 µg/mL (≈ 89.5 µM) in the test with Candida albicans.

Turning to `Cc1nc(-c2ccc(C(C)(C)C)cc2)sc1-c1nnc(N[C@H]2CC[C@H](N)CC2)o1`, the MIC with Staphylococcus aureus was 32 µg/mL (≈ 77.8 µM); in the test with Escherichia coli [1] it was 32 µg/mL (≈ 77.8 µM); in the test on Escherichia coli [2], over 64 µg/mL; in the test with Clostridioides difficile, 8 µg/mL (≈ 19.4 µM); in the test on Candida albicans it was 8 µg/mL (≈ 19.4 µM).

`Cc1nc(-c2ccc(C(C)(C)C)cc2)sc1-c1nnc(NCCCO)o1`: the MIC is over 64 µg/mL with Staphylococcus aureus; over 64 µg/mL in the test on Escherichia coli [1]; over 64 µg/mL with Escherichia coli [2]; 32 µg/mL (≈ 85.9 µM) with Clostridioides difficile; over 64 µg/mL in the test with Candida albicans.

On to `Cc1nc(-c2ccc(C(C)(C)C)cc2)sc1-c1nnc(NCCCN)o1`, for which the MIC in the test on Staphylococcus aureus is over 64 µg/mL; in the test on Escherichia coli [1], over 64 µg/mL; in the test on Escherichia coli [2], over 64 µg/mL; with Clostridioides difficile, 64 µg/mL (≈ 172 µM); with Candida albicans, 16 µg/mL (≈ 43.1 µM).

`Cc1nc(-c2ccc(C(C)(C)C)cc2)sc1-c1nnc(N2CCC[C@@H]2C(N)=O)o1`: the MIC with Staphylococcus aureus was over 64 µg/mL; with Escherichia coli [1] it was over 64 µg/mL; in the test with Escherichia coli [2], over 64 µg/mL; in the test with Clostridioides difficile it was 32 µg/mL (≈ 77.8 µM); in the test with Candida albicans, over 64 µg/mL.

As to `Cc1nc(-c2ccc(C(C)(C)C)cc2)sc1-c1nnc(N2CCC[C@H]2C(N)=O)o1`, the minimal inhibitory concentration (MIC) with Staphylococcus aureus was over 64 µg/mL; in the test with Escherichia coli [1], 64 µg/mL (≈ 156 µM); with Escherichia coli [2] it was over 64 µg/mL; in the test on Clostridioides difficile, 32 µg/mL (≈ 77.8 µM); in the test with Candida albicans it was over 64 µg/mL.

In the case of `Cc1nc(-c2ccc(C(C)(C)C)cc2)sc1-c1nnc(NC[C@@H](O)CO)o1`, the minimal inhibitory concentration (MIC) with Staphylococcus aureus is over 64 µg/mL; in the test on Escherichia coli [1], over 64 µg/mL; with Escherichia coli [2] it was over 64 µg/mL; with Clostridioides difficile, 32 µg/mL (≈ 82.4 µM); in the test with Candida albicans, over 64 µg/mL.

For `Cc1nc(-c2ccc(C(C)(C)C)cc2)sc1-c1nnc(NCC(O)CO)o1` (stereo not drawn), the MIC in the test with Staphylococcus aureus was over 64 µg/mL; with Escherichia coli [1], over 64 µg/mL; with Escherichia coli [2], over 64 µg/mL; in the test on Clostridioides difficile, 32 µg/mL (≈ 82.4 µM); with Candida albicans it was over 64 µg/mL.

As to `Cc1nc(-c2ccc(C(C)(C)C)cc2)sc1-c1nnc(NCC2CCCCN2)o1` (stereo not drawn), the MIC is 32 µg/mL (≈ 77.8 µM) in the test with Staphylococcus aureus; 16 µg/mL (≈ 38.9 µM) in the test on Escherichia coli [1]; over 64 µg/mL in the test on Escherichia coli [2]; 16 µg/mL (≈ 38.9 µM) in the test with Clostridioides difficile; over 64 µg/mL in the test on Candida albicans.

For the compound `Cc1nc(-c2ccc(C(C)(C)C)cc2)sc1-c1nnc(N2CCC[C@@H]2CO)o1`, the MIC was over 64 µg/mL in the test with Staphylococcus aureus; over 64 µg/mL in the test with Escherichia coli [1]; over 64 µg/mL in the test with Escherichia coli [2]; 32 µg/mL (≈ 80.3 µM) in the test on Clostridioides difficile; over 64 µg/mL in the test with Candida albicans.

Regarding `Cc1nc(-c2ccc(C(C)(C)C)cc2)sc1-c1nnc(N[C@@H]2CCCC[C@H]2N)o1` (relative stereo), the MIC with Staphylococcus aureus was 64 µg/mL (≈ 156 µM); in the test with Escherichia coli [1], over 64 µg/mL; in the test with Escherichia coli [2] it was over 64 µg/mL; with Clostridioides difficile it was 16 µg/mL (≈ 38.9 µM); in the test with Candida albicans, 64 µg/mL (≈ 156 µM).

Consider `CCC(C)n1ncn(-c2ccc(N3CCN(c4ccc(OCC5COC(Cn6cncn6)(c6ccc(Cl)cc6Cl)O5)cc4)CC3)cc2)c1=O` (stereo not drawn) [ITRACONAZOLE], for which the MIC in the test with Aspergillus fumigatus [3] and with Aspergillus fumigatus [4] was 1 µg/mL (≈ 1.42 µM) in each case.

Consider `CC(=O)NC[C@H]1CN(c2ccc(N3CCOCC3)c(F)c2)C(=O)O1` [LINEZOLID], for which the MIC in the test with Staphylococcus aureus is 1 µg/mL (≈ 2.96 µM); with Escherichia coli [1] it was 8 µg/mL (≈ 23.7 µM); in the test with Escherichia coli [2], over 64 µg/mL; in the test with Clostridioides difficile, 1 µg/mL (≈ 2.96 µM).

Regarding GENTAMICIN, the MIC in the test with Escherichia coli [1] and with Escherichia coli [2] was under 0.5 µg/mL each time.
